Measurements as given in US20040241754A1, “Modulating neuronal plasticity” (The Salk Institute for Biological Studies, priority 2003, published 2004).
“Also recorded” adds a separate entry of the source. Ends that are not written are not given here.

T1: GRIP PDZ 6 domain (Rattus norvegicus, UniProt P97879)
T1 construct: a GRIP fragment containing only the PDZ 6 domain; made in house; host or cells: E. coli BL21 (inferred from the PDZ4-6 construct)
T1 sequence (P97879 672-754 limits assumed): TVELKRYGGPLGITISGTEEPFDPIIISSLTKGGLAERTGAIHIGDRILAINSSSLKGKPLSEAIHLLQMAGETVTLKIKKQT

T2: GRIP PDZ4-6 (Rattus norvegicus, UniProt P97879)
T2 construct: corresponding to GRIP1 (amino acid 448-792); made in house; host or cells: E. coli BL21
T2 sequence (P97879 448-792): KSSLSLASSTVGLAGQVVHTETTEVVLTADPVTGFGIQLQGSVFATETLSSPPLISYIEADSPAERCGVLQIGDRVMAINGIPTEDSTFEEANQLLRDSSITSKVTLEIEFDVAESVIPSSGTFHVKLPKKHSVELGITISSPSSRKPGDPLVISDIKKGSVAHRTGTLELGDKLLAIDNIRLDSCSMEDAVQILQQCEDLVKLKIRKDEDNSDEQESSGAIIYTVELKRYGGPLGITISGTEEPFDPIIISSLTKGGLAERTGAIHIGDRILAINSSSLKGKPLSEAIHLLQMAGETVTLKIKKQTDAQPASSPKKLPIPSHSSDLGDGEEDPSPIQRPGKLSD

T3: EphA8 (Mus musculus, UniProt O09127)
T3 sequence (O09127 27-1004): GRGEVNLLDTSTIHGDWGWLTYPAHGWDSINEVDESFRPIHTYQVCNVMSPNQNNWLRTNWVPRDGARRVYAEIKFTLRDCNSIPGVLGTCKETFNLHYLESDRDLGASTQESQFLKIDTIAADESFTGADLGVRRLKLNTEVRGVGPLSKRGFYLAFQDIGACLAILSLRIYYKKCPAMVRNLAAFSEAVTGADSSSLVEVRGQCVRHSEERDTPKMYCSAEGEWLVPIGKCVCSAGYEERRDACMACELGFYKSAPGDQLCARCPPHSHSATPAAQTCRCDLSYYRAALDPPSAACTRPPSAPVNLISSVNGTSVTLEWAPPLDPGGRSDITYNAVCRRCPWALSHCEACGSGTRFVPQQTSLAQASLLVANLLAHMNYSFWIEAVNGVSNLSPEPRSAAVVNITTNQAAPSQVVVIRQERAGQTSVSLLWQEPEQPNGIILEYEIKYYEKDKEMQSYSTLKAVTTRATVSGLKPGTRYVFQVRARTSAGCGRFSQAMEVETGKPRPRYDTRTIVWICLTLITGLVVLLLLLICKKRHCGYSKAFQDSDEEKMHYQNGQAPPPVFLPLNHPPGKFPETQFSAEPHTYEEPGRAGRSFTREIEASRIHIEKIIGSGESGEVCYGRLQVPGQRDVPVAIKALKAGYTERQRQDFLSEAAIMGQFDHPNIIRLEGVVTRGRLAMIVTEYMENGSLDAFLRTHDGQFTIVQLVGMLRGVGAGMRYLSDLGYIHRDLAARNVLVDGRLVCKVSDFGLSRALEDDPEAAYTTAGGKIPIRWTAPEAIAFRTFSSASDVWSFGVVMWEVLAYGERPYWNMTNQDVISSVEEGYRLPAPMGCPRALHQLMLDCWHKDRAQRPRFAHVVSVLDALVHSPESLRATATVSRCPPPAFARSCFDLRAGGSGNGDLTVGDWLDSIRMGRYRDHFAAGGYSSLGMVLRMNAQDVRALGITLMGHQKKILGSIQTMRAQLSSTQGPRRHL


Experiments:
[1] = biological target: T1, GRIP PDZ 6 domain; test: Competitive binding of 35S-EphB2 to His-GRIP-PDZ6
Description: Briefly, the carboxy terminal region of EphB2 corresponding to mouse EphB2 receptor (amino acid 930-993) was generated by PCR from mouse brain library and subcloned into pGEX2TK (Pharmacia). The GRIP(PDZ4-6) construct, corresponding to GRIP1 (amino acid 448-792) was obtained by PCR from an adult rat hippocampal library and subcloned into pRSET vector. E coli (strain BL21) were transformed with His-GRIP(PDZ4-6) and GST-EphB2 and protein production induced with IPTG. GST-EphB2 protein was purified on glutathionine beads and ^35S-EphB2 cleaved from GST with thrombin (1 U/μg). GRIP(PDZ4-6) protein was purified on Ni-NTA agarose, and eluted with imadazole. ^35S-EphB2 (50 nM) was incubated with (15 μg) of His-GRIP(PDZ4-6) protein in PBS buffer with protease inhibitors for 2 hrs at 22° C. in the absence or presence of peptides. ^35S-EphB2 binding to His-GRIP(PDZ4-6) was determined after a 45 min incubation with Ni-NTA agarose and vacuum filtration onto Whatman GFB filter circles (pretreated with 3% BSA). Filters were washed with ice-cold PBS buffer, allowed to equilibrate overnight in ECOLUME scintillation cocktail (ICN pharmaceuticals, Irvine Calif.), and specific counts measured in a scintillation counter. Non-specific binding was defined as the residual binding measured in the absence of His-GRIP(PDZ4-6). […]

[2] = test system: mossy fiber synapses of hippocampal CA3 pyramidal neurons; test: Mossy fiber LTP, whole-cell patch clamp in hippocampal slices; assay type: cell-based, mice
Procedure: The role of the GluR2 subunit in LTP at mossy fiber terminals was evaluated in whole cell patch clamp experiments using hippocampal CA3 pyramidal neurons. Briefly, transverse hippocampal slices (350 μm) were made from P12-18 mice (strain 129SvEv) as previously described (Contractor et al., Neuron 29, 209-16. (2001)). Slices were transferred to a recording chamber, and whole-cell patch clamp recordings made from visually identified pyramidal cells in the CA3 region of the hippocampus. The recording electrode (i.e., patch electrode) is filled with an “internal” solution described below. A seal between the glass of the electrode and the membrane of the cell is made. The seal is then “broken through” by pushing the electrode through the membrane to gain low resistance access to the cell interior and enable voltage clamping of the cell membrane. This also allows dialysis of the cell with test reagents such as peptides and antibodies. A stimulating electrode is attached to a current source and allows current to stimulate action potentials while a reference electrode is placed in the recording bath. The composition of the internal solution was: 95 mM CsF, 25 mM CsCl, 10 mM Cs-HEPES, 10 mM Cs-EGTA, 2 mM NaCl, 2 mM Mg-ATP, 10 mM QX-314, 5 mM TEA-Cl, 5 mM 4-AP, pH adjusted to 7.3 with CsOH.
Peptides were added directly to the internal solution on the day of the experiment from frozen stocks in protease inhibitors made up in phosphate buffered saline (PBS). To avoid leakage of peptides or antibodies into the extracellular space, pipette tips were filled with normal internal solution and then the pipette was backfilled with peptide/antibody containing internal fluid. The final concentration of peptides was 50 μM in all experiments. The final concentration of protease inhibitors were: bestatin 2 μg/ml, leupeptin 25 ng/ml, pepstatin 35 ng/ml, aprotinin 100 ng/ml.
In control experiments where peptides were not included, internal solutions were made up in exactly the same way with protease inhibitors in PBS but lacking any added peptide. Antibodies were made up in PBS stock and added directly to the internal solution at a final concentration of 20 μg/ml. The pH and osmolarity of all internal solutions were checked before use. Series resistances (Rs) were generally <10M and were continuously monitored throughout the duration of the experiment. […] Experiments using mutant mice were performed with heterozygous breedings blind to the genotype of the animal.
Mossy fiber EPSCs were evoked with a monopolar glass electrode positioned in the stratum lucidum. EPSCs were evaluated using a 40 ms interval between recordings. All recordings were made in the continuous presence of bicuculline (10 μM), picrotoxin (50 μM) and the NMDA receptor antagonist D-AP5 [D(-)-2-Amino-5-phosphonopentanoic acid; 50 μM]. The group II mGluR agonist, LCCG-1 (10 μM), which selectively depresses mossy fiber transmission, was applied at the end of each experiment. LTP was induced by tetanic stimulation comprising three 1 s stimulations (100 Hz) with a 10 s interval. Data are presented as mean±SEM. Parameters were compared using the Student's unpaired t-test where not specified, and the K-S test, p<0.05 was considered significant.
Cumulative probability is determined by ranking the EPSC data set from the highest to the lowest value from 20 to 30 minutes post tetanization. Each point is graphed with its corresponding percentile. […] The lowest LTP value was about 40% signified by the lowest point on the 1 st graph (open circles) and the largest LTP was about 160%.

[3] = biological target: T2, GRIP PDZ4-6; test: Competitive binding of 35S-EphB2 to His-GRIP-PDZ4-6; conditions: 35S-EphB2 50 nM; fitted to the Hill equation; read-out: Ki, displacement of 35S-EphB2 binding to His-GRIP-PDZ 4-6
Procedure: A competitive binding assay was prepared to determine if the LTP inhibitory effects of the GluR2ct peptide were mediated through disruption of binding between Eph receptors and PDZ domain 6 of GRIP (Torres et al., Neuron 21, 1453-63. (1998)) as opposed to disruption of binding between the GluR2 subunit and the GluR2-binding PDZ 4 and 5 domains of GRIP (Dong et al., Nature 386, 279-84. (1997)). For this purpose, a binding assay was established between GRIP PDZ domain fragments (His-GRIP-PDZ4-6) and an EphB2 carboxy terminal fusion protein labeled with ^35S-methionine (^35S-EphB2).
Briefly, the carboxy terminal region of EphB2 corresponding to mouse EphB2 receptor (amino acid 930-993) was generated by PCR from mouse brain library and subcloned into pGEX2TK (Pharmacia). The GRIP(PDZ4-6) construct, corresponding to GRIP1 (amino acid 448-792) was obtained by PCR from an adult rat hippocampal library and subcloned into pRSET vector. E coli (strain BL21) were transformed with His-GRIP(PDZ4-6) and GST-EphB2 and protein production induced with IPTG. GST-EphB2 protein was purified on glutathionine beads and ^35S-EphB2 cleaved from GST with thrombin (1 U/μg). GRIP(PDZ4-6) protein was purified on Ni-NTA agarose, and eluted with imadazole. ^35S-EphB2 (50 nM) was incubated with (15 μg) of His-GRIP(PDZ4-6) protein in PBS buffer with protease inhibitors for 2 hrs at 22° C. in the absence or presence of peptides. ^35S-EphB2 binding to His-GRIP(PDZ4-6) was determined after a 45 min incubation with Ni-NTA agarose and vacuum filtration onto Whatman GFB filter circles (pretreated with 3% BSA). Filters were washed with ice-cold PBS buffer, allowed to equilibrate overnight in ECOLUME scintillation cocktail (ICN pharmaceuticals, Irvine Calif.), and specific counts measured in a scintillation counter. Non-specific binding was defined as the residual binding measured in the absence of His-GRIP(PDZ4-6).

[4] = biological target: EphA4 (Homo sapiens, UniProt P54764); conditions: read-out: Kd for binding to EphA4; cited from earlier work
[5] = biological target: T3, EphA8; conditions: read-out: Kd for binding to EphA8; cited from earlier work
[6] = biological target: EphA3; conditions: read-out: Kd for binding to EphA3; cited from earlier work
[7] = peptide 50 μM in patch electrode, 40 ms interval

Sequence of EphA4 (P54764 20-986, species assumed): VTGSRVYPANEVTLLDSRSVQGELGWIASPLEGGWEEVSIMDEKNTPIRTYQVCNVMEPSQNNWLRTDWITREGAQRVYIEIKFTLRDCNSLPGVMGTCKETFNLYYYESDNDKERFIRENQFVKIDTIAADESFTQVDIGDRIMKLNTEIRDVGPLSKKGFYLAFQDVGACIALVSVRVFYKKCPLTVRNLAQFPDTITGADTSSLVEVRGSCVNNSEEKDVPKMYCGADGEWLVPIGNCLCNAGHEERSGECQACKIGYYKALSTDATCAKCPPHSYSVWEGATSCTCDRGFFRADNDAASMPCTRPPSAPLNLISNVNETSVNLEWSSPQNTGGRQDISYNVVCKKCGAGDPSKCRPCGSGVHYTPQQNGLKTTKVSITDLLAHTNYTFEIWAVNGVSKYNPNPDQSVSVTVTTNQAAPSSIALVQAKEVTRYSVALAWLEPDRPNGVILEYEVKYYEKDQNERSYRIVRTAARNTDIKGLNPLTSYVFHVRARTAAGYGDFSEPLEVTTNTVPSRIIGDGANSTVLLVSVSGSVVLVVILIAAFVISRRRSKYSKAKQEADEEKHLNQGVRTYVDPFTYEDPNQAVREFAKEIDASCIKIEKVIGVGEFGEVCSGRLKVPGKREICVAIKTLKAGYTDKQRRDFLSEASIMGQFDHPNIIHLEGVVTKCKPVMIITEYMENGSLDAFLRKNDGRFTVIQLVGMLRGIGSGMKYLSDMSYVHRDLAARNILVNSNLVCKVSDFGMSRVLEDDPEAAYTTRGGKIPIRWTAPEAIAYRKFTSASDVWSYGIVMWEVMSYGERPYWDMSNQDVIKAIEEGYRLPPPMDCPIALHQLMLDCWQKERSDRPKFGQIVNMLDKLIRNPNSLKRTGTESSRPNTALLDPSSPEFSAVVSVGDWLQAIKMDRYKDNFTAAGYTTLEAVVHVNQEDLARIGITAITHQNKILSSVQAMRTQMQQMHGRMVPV

Molecule | displacement of EphB2 from / binding to GRIP PDZ domain 6 [1] | Ki ([1]; read-out: Ki, displacement of 35S-EphB2 binding to His-GRIP-PDZ6) [nM] | LTP (potentiation of the EPSC after tetanic stimulation) ([2]; peptide 50 μM in patch electrode (postsynaptic), 25 to 30 minutes after tetanic stimulation) [%] | LTP PPR (paired pulse ratio after LTP induction) [2, 7] | control PPR (paired pulse ratio before LTP induction) [2, 7] | PTP (post-tetanic potentiation) ([2]; peptide 50 μM in patch electrode, immediately following tetanic stimulation) [%] | effect on basal synaptic transmission / basal EPSC amplitudes ([2]; peptide in patch electrode) | paired pulse ratio after LTP induction versus pretetanic ([2]; peptide in patch electrode) | effect on tetanus induced LTP ([2]; peptide in patch electrode (postsynaptic)) | Ki [3] [nM] | Kd [4] [nM] | Kd [5] [nM] | Kd [6] [nM]
NVYGIESVKI [GluR2ct, Asn-Val-Tyr-Gly-Ile-Glu-Ser-Val-Lys-Ile] | binds directly to PDZ domain 6 of GRIP; also recorded: can displace EphB2 | 155 | 140±11 | 2.5±0.12 | 2.8±0.14 | 510±67 | small effect on basal synaptic transmission in some neurons | no significant difference after induction of LTP | little potentiation was observed; also recorded: significantly less potentiation; also recorded: inhibit mossy fiber hippocampal CA3 neuronal LTP | 106 |  |  | 
ephrin-A2: a 213 amino acid protein; ephrin ligand (protein, UniProt O43921 1-213, looked up, full-length, a 213 amino acid protein; ephrin ligand) MAPAQRPLLPLLLLLLPLPPPPFARAEDAARANSDRYAVYWNRSNPRFHAGAGDDGGGYTVEVSINDYLDIYCPHYGAPLPPAERMEHYVLYMVNGEGHASCDHRQRGFKRWECNRPAAPGGPLKFSEKFQLFTPFSLGFEFRPGHEYYYISATPPNAVDRPCLRLKVYVRPTNETLYEAPEPIFTSNNSCSSPGGCRLFLSTIPVLWTLLGS |  |  |  |  |  |  |  |  |  |  | 10 | 1.3 | 1
